Laboratory results as given in paper PMC4923908, “In vitro and in vivo study of epigallocatechin-3-gallate-induced apoptosis in aerobic glycolytic hepatocellular carcinoma cells involving inhibition of phosphofructokinase activity” (Scientific Reports, 2016).

Assays:
[1] = target: T1, Phosphofructokinase (PFK), purified from rabbit skeletal muscle (Oryctolagus cuniculus, UniProt P00511); test: radiometric assay of purified PFK ([γ-32P]ATP); supported by intrinsic fluorescence center-of-mass shift (tetramer to dimer); assay type: biochemical
T1 construct: gene PFKM
T1 sequence (P00511 2-780): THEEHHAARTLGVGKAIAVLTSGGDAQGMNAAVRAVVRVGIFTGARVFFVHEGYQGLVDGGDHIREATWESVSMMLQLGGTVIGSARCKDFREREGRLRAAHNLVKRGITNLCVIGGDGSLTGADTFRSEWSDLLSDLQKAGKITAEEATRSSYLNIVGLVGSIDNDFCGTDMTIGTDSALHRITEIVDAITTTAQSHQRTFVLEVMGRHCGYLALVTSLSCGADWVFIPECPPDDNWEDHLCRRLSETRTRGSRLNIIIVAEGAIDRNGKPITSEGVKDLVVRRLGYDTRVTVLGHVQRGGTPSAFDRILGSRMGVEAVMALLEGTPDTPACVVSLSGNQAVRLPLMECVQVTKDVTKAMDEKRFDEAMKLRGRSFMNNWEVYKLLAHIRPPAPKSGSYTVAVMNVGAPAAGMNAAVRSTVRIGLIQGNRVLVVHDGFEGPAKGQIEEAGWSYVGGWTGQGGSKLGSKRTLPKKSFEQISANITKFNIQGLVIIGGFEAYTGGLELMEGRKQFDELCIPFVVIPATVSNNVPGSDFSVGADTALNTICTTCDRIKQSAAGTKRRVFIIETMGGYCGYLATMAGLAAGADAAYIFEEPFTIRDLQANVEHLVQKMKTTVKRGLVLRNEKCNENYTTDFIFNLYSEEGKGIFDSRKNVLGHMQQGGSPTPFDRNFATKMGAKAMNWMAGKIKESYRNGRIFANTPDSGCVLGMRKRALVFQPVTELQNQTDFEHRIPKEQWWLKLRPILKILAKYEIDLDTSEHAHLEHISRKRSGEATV

[2] = target: the molecule itself; test: intrinsic fluorescence spectra (center of mass); purified PFK incubated 1 h with 0, 25, 50, 100 and 200 uM EGCG; conditions as for the radioassay (50 mM Tris-HCl pH 7.4, 5 mM MgCl2, 5 mM (NH4)2SO4, 1 mM F6P, 1 mM ATP, 1 mg/ml purified PFK); excitation 280 nm, emission 300-400 nm; tetramer to dimers

O=C(O[C@@H]1Cc2c(O)cc(O)cc2O[C@@H]1c1cc(O)c(O)c(O)c1)c1cc(O)c(O)c(O)c1 [EGCG, epigallocatechin-3-gallate]
IC50 [1]: 124 µM

B1: Phosphofructokinase (PFK) purified from rabbit skeletal muscle (enzyme, UniProt P00511 1-780, looked up)
chain: MTHEEHHAARTLGVGKAIAVLTSGGDAQGMNAAVRAVVRVGIFTGARVFFVHEGYQGLVDGGDHIREATWESVSMMLQLGGTVIGSARCKDFREREGRLRAAHNLVKRGITNLCVIGGDGSLTGADTFRSEWSDLLSDLQKAGKITAEEATRSSYLNIVGLVGSIDNDFCGTDMTIGTDSALHRITEIVDAITTTAQSHQRTFVLEVMGRHCGYLALVTSLSCGADWVFIPECPPDDNWEDHLCRRLSETRTRGSRLNIIIVAEGAIDRNGKPITSEGVKDLVVRRLGYDTRVTVLGHVQRGGTPSAFDRILGSRMGVEAVMALLEGTPDTPACVVSLSGNQAVRLPLMECVQVTKDVTKAMDEKRFDEAMKLRGRSFMNNWEVYKLLAHIRPPAPKSGSYTVAVMNVGAPAAGMNAAVRSTVRIGLIQGNRVLVVHDGFEGPAKGQIEEAGWSYVGGWTGQGGSKLGSKRTLPKKSFEQISANITKFNIQGLVIIGGFEAYTGGLELMEGRKQFDELCIPFVVIPATVSNNVPGSDFSVGADTALNTICTTCDRIKQSAAGTKRRVFIIETMGGYCGYLATMAGLAAGADAAYIFEEPFTIRDLQANVEHLVQKMKTTVKRGLVLRNEKCNENYTTDFIFNLYSEEGKGIFDSRKNVLGHMQQGGSPTPFDRNFATKMGAKAMNWMAGKIKESYRNGRIFANTPDSGCVLGMRKRALVFQPVTELQNQTDFEHRIPKEQWWLKLRPILKILAKYEIDLDTSEHAHLEHISRKRSGEATV
notes: Phosphofructokinase from rabbit skeletal muscle (muscle-type ATP-dependent 6-phosphofructokinase); no identifier or residues printed; The number of copies therefore depends on the condition; also called purified PFK; PFK1; source: purified from rabbit skeletal muscle
stoichiometry N [2]: 2
